The test concerns the target T1, SaDHPS (Staphylococcus aureus, UniProt O05701, R204H/P216R).
T1 construct: gene folP
Particulars: read-out: SaDHPS + SIZ-2FITC / IC50 (ng/mL); tracer SIZ-2FITC; 4 mM DHPPP, 40 mM Mg2+ in reaction buffer, pH 8.0, 37 C, 2 min.

SMILES strings stand for the structures.

In the case of `NS(=O)(=O)c1ccccc1` [BSN], the IC50 is 55.1 nM.

The record behind these values is paper PMC10534214 (Food Chemistry: X, 2023).
